Measurements reported in patent EP4786487A1, “PEPTIDE” (Peptidream Inc, priority 2023, dated 2025).
Where two headings read alike, the source gives them in different places. Starred links: 1 amine or outer side, 2 acyl side, 3 side chain; linkers in the order of their positions; H or OH if unused. Positions of bridges follow the written chain, without caps; N, C: chain ends. Non-standard residues stand in square brackets, D forms with d. Residues, ends and D or L forms follow the SMILES beside them. No end group written: not given here. *: point of attachment. Trp(6-OH,1-(4-HO2C-Ph)) = N[C@@H](Cc1cn(-c2ccc(C(=O)O)cc2)c2cc(O)ccc12)C(=O)O; Phe(3-OCH2COOH) = N[C@@H](Cc1cccc(OCC(=O)O)c1)C(=O)O; N(CH2CH2CO)Gly = O=C(CN(CCC(=O)[*:3])[*:1])[*:2]; NMePhe(4-CH2NH2) = CN[C@@H](Cc1ccc(CN)cc1)C(=O)O; Piperidine(4-CH2CH2CONH2) = NC(=O)CCC1CCN(*)CC1; Phe(4-COOH) = N[C@@H](Cc1ccc(C(=O)O)cc1)C(=O)O; Gly(N(CH2)3COOH) = O=C(O)CCCNCC(=O)O; X1 = CCCCCCC[C@H](N[*:1])C(=O)[*:2]; NMeAad = CN[C@@H](CCCC(=O)O)C(=O)O; NMeF = CN[C@@H](Cc1ccccc1)C(=O)O; NMeDab = CN[C@@H](CCN)C(=O)O; NMeDap = CN[C@@H](CN)C(=O)O; NMeA = CN[C@@H](C)C(=O)O; Sar = CNCC(=O)O

Columns and labels:
Format in all cases: cell-based
Myostatin [1] = molecular target: T1, Myostatin (Homo sapiens, UniProt O14793); experiment: Reporter gene assay for myostatin signaling in HepG2 cell line, Evaluation Procedure (1), myostatin inhibition
T1 construct: active myostatin (also called mature myostatin) is a homodimer consisting of two C-terminal growth factor domains; purchased R&D systems 788-G8/CF
T1 sequence (O14793 267-375): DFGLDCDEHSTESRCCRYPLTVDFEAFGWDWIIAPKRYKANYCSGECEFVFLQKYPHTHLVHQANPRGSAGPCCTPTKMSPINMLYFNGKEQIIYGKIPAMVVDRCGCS
Experimental: (§1) In this Example, the in vitro myostatin inhibitory effects of the peptides synthesized in Examples 1 and 2 were evaluated using a reporter gene assay for myostatin signaling in HepG2 cell line.
(§2) HepG2 cell line (HB-8065, ATCC) cultured in EMEM (055-08975, WAKO Industries) containing 10% FBS (10270106, Gibco) and 50 µg/mL gentamicin (11980-14, Nacalai Tesque) was seeded in 96-well plates (167008, Thermo) at 2.0 × 10^4 cells/well and incubated in a CO2 incubator (37°C, 5% CO2) for 24 hours. The pGL3(CAGA)12-luc plasmid, namely a pGL3 vector (E1751, Promega) having a luciferase gene inserted downstream of a promoter sequence with 12 CAGA repeats attached, was added to the wells along with a transfection reagent (X-treamGENE9 DNA Transfection Reagent, 6365809001, Roche) at a concentration of 0.04 µg/well. The cell line was cultured in a CO2 incubator (37°C, 5% CO2) for 24 hours for transfection. The medium was discarded and replaced with EMEM containing 50 µL/well of 0.1% bovine serum albumin (A7030, Sigma) and 50 µg/mL gentamicin, and incubated in a CO2 incubator (37°C, 5% CO2) for 2 hours.
(§3) Myostatin (788-G8/C, R&D systems) or GDF-11 (1958-GD-G8/CF, R&D systems) was added so that the final concentrations were those listed in Table 5.
(§4) A 4-fold dilution series of various peptides synthesized in Examples 1 and 2 was added to achieve 0.006-100 nmol/L (myostatin inhibition) and 0.12-2000 nmol/L (GDF-11 inhibition). At this time, blank wells, in which neither myostatin, GDF-11, nor each peptide was added, were also prepared and incubated in a CO2 incubator (37°C, 5% CO2) for 20 to 24 hours.
(§5) The medium containing the cells was removed, and a mixture containing PBS (14190144, Thermo) and a chromogenic substrate One-Glo Luciferase Assay System (E6120, Promega) at a ratio of 1:1 was added to each well at 100 µL/well. This was stirred with a plate shaker for 5 min and transferred to a 384-well plate (3570, Corning) at a volume of 20 µL/well.
(§6) The plate was centrifuged at 1,000 × g for 1 min and the luminescence signal (700 nm luminescence) was measured using a plate reader (Envision 2104, PerkinElmer). Based on the measured values, IC50 values of the peptides were calculated using software (Prism 9, GraphPad). […]
(§7) In this Example, the in vitro myostatin inhibitory effects of the peptides synthesized in Examples 10 and 11 were evaluated according to the Evaluation Procedure (1) in Example 3.

GDF-11 = molecular target: T2, GDF-11 (Homo sapiens, UniProt O95390); experiment: Reporter gene assay for myostatin signaling in HepG2 cell line, Evaluation Procedure (1), GDF-11 inhibition
T2 construct: purchased R&D systems 1958-GD-G8/CF
T2 sequence (O95390 299-407): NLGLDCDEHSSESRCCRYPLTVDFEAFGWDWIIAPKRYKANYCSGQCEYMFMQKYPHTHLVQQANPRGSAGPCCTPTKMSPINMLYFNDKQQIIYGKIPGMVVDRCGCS
Experimental: as §1, §2, §3, §4, §5, §6, §7

Myostatin [2] = experiment: Reporter gene assay for myostatin signaling in HepG2 cell line, Evaluation Procedure (1), myostatin inhibition
Experimental: as §1, §2, §3, §4, §5, §6, §7

[3] = HepG2, luciferase reporter, Evaluation Procedure (1), Method D
[4] = HepG2, luciferase reporter, Evaluation Procedure (1), Method D, read-out: IC50 (Luciferase) GDP-11 HepG2
[5] = Method D: Myostatin 1.5 ng/mL, read-out: IC50 (Luciferase) Myostatin HepG2
[6] = Method D: GDF-11 1.5 ng/mL, read-out: IC50 (Luciferase) GDF-11 HepG2

Molecule	IC50 (Myostatin [1]; [3])	IC50 (GDF-11; [4])	IC50 (Myostatin [1]; [5])	IC50 (GDF-11; [6])	other results
CCCCCCC[C@@H]1NC(=O)[C@@H]2Cc3ccc(cc3)CNC(=O)CC[C@H](NC(=O)CSC[C@H](C(=O)O)NC(=O)[C@H](Cc3ccccc3)N(C)C(=O)[C@H](C)N(C)C1=O)C(=O)N[C@@H](C)C(=O)N[C@@H](Cc1cn(-c3ccc(C(=O)O)cc3)c3cc(O)ccc13)C(=O)N[C@@H](Cc1ccc(O)cc1)C(=O)N(C)[C@@H](Cc1ccccc1)C(=O)N[C@@H]([C@@H](C)CC)C(=O)N1CCC[C@@H]1C(=O)N[C@@H](Cc1cccc(OCC(=O)O)c1)C(=O)N[C@@H](Cc1ccc(C(=O)O)cc1)C(=O)N[C@@H](CCCNC(=N)N)C(=O)N2C [Myostatin_99_v424] ({CH2CO}-EA[Trp(6-OH,1-(4-HO2C-Ph))]Y[NMeF]I[dP][Phe(3-OCH2COOH)][Phe(4-COOH)]R[NMePhe(4-CH2NH2)][X1][NMeA][NMeF][dC]-OH; lactam 1-11; thioether N-15)			0.04 nM	15.2 nM	
CCCCCCC[C@@H]1NC(=O)[C@@H]2Cc3ccc(cc3)CNC(=O)CC[C@H](NC(=O)CSC[C@H](C(=O)O)NC(=O)[C@H](Cc3ccccc3)N(C)C(=O)[C@H](C)N(C)C1=O)C(=O)N[C@@H](C)C(=O)N[C@@H](Cc1c[nH]c3ccccc13)C(=O)N[C@@H](Cc1ccc(O)cc1)C(=O)N(C)[C@@H](Cc1ccccc1)C(=O)N[C@@H]([C@@H](C)CC)C(=O)N(C)[C@@H](C)C(=O)N[C@@H](Cc1cccc(OCC(=O)O)c1)C(=O)N[C@@H](Cc1ccc(C(=O)O)cc1)C(=O)N[C@@H](CCCNC(=N)N)C(=O)N2C [Myostatin_99_v358] ({CH2CO}-EAWY[NMeF]I[NMeA][Phe(3-OCH2COOH)][Phe(4-COOH)]R[NMePhe(4-CH2NH2)][X1][NMeA][NMeF][dC]-OH; lactam 1-11; thioether N-15)			0.17 nM	52.8 nM	
CCCCCCC[C@@H]1NC(=O)[C@H](Cc2ccccc2)N(C)C(=O)[C@H](CCCNC(=N)N)NC(=O)[C@H](Cc2ccc(C(=O)O)cc2)NC(=O)[C@H](Cc2cccc(OCC(=O)O)c2)NC(=O)[C@H](C)N(C)C(=O)[C@H]([C@@H](C)CC)NC(=O)[C@H](Cc2ccccc2)N(C)C(=O)[C@H](Cc2ccc(O)cc2)NC(=O)[C@H](Cc2c[nH]c3ccccc23)NC(=O)[C@H](C)NC(=O)[C@@H]2CC(=O)NCC[C@@H](C(=O)N(C)[C@@H](Cc3ccccc3)C(=O)N[C@@H](C(=O)O)CSCC(=O)N2)N(C)C1=O [Myostatin_99_v367] ({CH2CO}-DAWY[NMeF]I[NMeA][Phe(3-OCH2COOH)][Phe(4-COOH)]R[NMeF][X1][NMeDab][NMeF][dC]-OH; lactam 1-13; thioether N-15)			0.15 nM	117 nM	
CCCCCCC[C@@H]1NC(=O)[C@@H]2Cc3ccc(cc3)CNC(=O)C[C@H](NC(=O)CSC[C@H](C(=O)O)NC(=O)[C@H](Cc3ccccc3)N(C)C(=O)[C@H](C)N(C)C1=O)C(=O)N[C@@H](C)C(=O)N[C@@H](Cc1c[nH]c3ccccc13)C(=O)N[C@@H](Cc1ccc(O)cc1)C(=O)N(C)[C@@H](Cc1ccccc1)C(=O)N[C@@H]([C@@H](C)CC)C(=O)N(C)[C@@H](C)C(=O)N[C@@H](Cc1cccc(OCC(=O)O)c1)C(=O)N[C@@H](Cc1ccc(C(=O)O)cc1)C(=O)N[C@@H](CCCNC(=N)N)C(=O)N2C [Myostatin_99_v386] ({CH2CO}-DAWY[NMeF]I[NMeA][Phe(3-OCH2COOH)][Phe(4-COOH)]R[NMePhe(4-CH2NH2)][X1][NMeA][NMeF][dC]-OH; lactam 1-11 (inferred); thioether N-15 (inferred); N-terminus and C-terminus assumed)					Selectivity (Myostatin [2]; Method D, GDF-11 IC50 versus Myostatin IC50): 294.1
A-R-W-Y-MeF-I-MeG-Y-Y-R-MeF-L-MeA-MeF-C (ARWY[NMeF]I[Sar]YYR[NMeF]L[NMeA][NMeF]C) [SEQ ID NO: 1]					inhibitory activity against myostatin (Myostatin [2]; HepG2 reporter assays, statement in words): confirmed to have myostatin inhibitory activity

The next lines start with results.

IC50 (Myostatin [1]; [3])	IC50 (GDF-11; [4])	IC50 (Myostatin [1]; [5])	IC50 (GDF-11; [6])	Molecule	other results
0.11 nM	90.2 nM			CCCCCCC[C@@H]1NC(=O)[C@H](Cc2ccccc2)N(C)C(=O)[C@H](CCCNC(=N)N)NC(=O)[C@H](Cc2ccc(C(=O)O)cc2)NC(=O)[C@H](Cc2cccc(OCC(=O)O)c2)NC(=O)[C@H]2CCCN2C(=O)[C@H]([C@@H](C)CC)NC(=O)[C@H](Cc2ccccc2)N(C)C(=O)[C@H](Cc2ccc(O)cc2)NC(=O)[C@H](Cc2cn(-c3ccc(C(=O)O)cc3)c3cc(O)ccc23)NC(=O)[C@H](C)NC(=O)CN(CCCC(=O)O)C(=O)[C@H](C)N(C)C(=O)[C@@H](C)NC(=O)[C@H](Cc2ccccc2)N(C)C(=O)[C@H](C)N(C)C1=O [Myostatin_99_v482] (cyclo(A[Trp(6-OH,1-(4-HO2C-Ph))]Y[NMeF]I[dP][Phe(3-OCH2COOH)][Phe(4-COOH)]R[NMeF][X1][NMeA][NMeF][dA][NMeA][Gly(N(CH2)3COOH)]))	
0.04 nM	25.5 nM			CCCCCCC[C@@H]1NC(=O)[C@H](Cc2ccccc2)N(C)C(=O)[C@H](CCCNC(=N)N)NC(=O)[C@H](Cc2ccc(C(=O)O)cc2)NC(=O)[C@H](Cc2cccc(OCC(=O)O)c2)NC(=O)[C@H]2CCCN2C(=O)[C@H]([C@@H](C)CC)NC(=O)[C@H](Cc2ccccc2)N(C)C(=O)[C@H](Cc2ccc(O)cc2)NC(=O)[C@H](Cc2cn(-c3ccc(C(=O)O)cc3)c3cc(O)ccc23)NC(=O)[C@H](C)NC(=O)CN2CCC(=O)NC[C@@H](C(=O)N(C)[C@@H](Cc3ccccc3)C(=O)N[C@@H](C(=O)N3CCC(CCC(N)=O)CC3)CSCC2=O)N(C)C1=O [Myostatin_99_v478] ({CH2CO}-[N(CH2CH2CO)Gly]A[Trp(6-OH,1-(4-HO2C-Ph))]Y[NMeF]I[dP][Phe(3-OCH2COOH)][Phe(4-COOH)]R[NMeF][X1][NMeDap][NMeF][dC]-{Piperidine(4-CH2CH2CONH2)}; lactam 1-13; thioether N-15)	
0.18 nM	53.2 nM			CCCCCCC[C@@H]1NC(=O)[C@H](Cc2ccccc2)N(C)C(=O)[C@H](CCCNC(=N)N)NC(=O)[C@H](Cc2ccc(C(=O)O)cc2)NC(=O)[C@H](Cc2cccc(OCC(=O)O)c2)NC(=O)[C@H]2CCCN2C(=O)[C@H]([C@@H](C)CC)NC(=O)[C@H](Cc2ccccc2)N(C)C(=O)[C@H](Cc2ccc(O)cc2)NC(=O)[C@H](Cc2cn(-c3ccc(C(=O)O)cc3)c3cc(O)ccc23)NC(=O)[C@H](C)NC(=O)CN(CCCC(=O)O)C(=O)CSC[C@H](C(=O)N2CCC(CCC(N)=O)CC2)NC(=O)[C@H](Cc2ccccc2)N(C)C(=O)[C@H](C)N(C)C1=O [Myostatin_99_v488] ({CH2CO}-[Gly(N(CH2)3COOH)]A[Trp(6-OH,1-(4-HO2C-Ph))]Y[NMeF]I[dP][Phe(3-OCH2COOH)][Phe(4-COOH)]R[NMeF][X1][NMeA][NMeF][dC]-{Piperidine(4-CH2CH2CONH2)}; thioether N-15)	
0.7 nM	112 nM			CCCCCCC[C@@H]1NC(=O)[C@@H]2Cc3ccc(cc3)CNC(=O)CCC[C@@H](C(=O)N[C@@H](C)C(=O)N[C@@H](Cc3cn(-c4ccc(C(=O)O)cc4)c4cc(O)ccc34)C(=O)N[C@@H](Cc3ccc(O)cc3)C(=O)N(C)[C@@H](Cc3ccccc3)C(=O)N[C@@H]([C@@H](C)CC)C(=O)N3CCC[C@@H]3C(=O)N[C@@H](Cc3cccc(OCC(=O)O)c3)C(=O)N[C@@H](Cc3ccc(C(=O)O)cc3)C(=O)N[C@@H](CCCNC(=N)N)C(=O)N2C)N(C)C(=O)[C@H](C)N(C)C(=O)[C@@H](C)NC(=O)[C@H](Cc2ccccc2)N(C)C(=O)[C@H](C)N(C)C1=O [Myostatin_99_v490] (cyclo(A[Trp(6-OH,1-(4-HO2C-Ph))]Y[NMeF]I[dP][Phe(3-OCH2COOH)][Phe(4-COOH)]R[NMePhe(4-CH2NH2)][X1][NMeA][NMeF][dA][NMeA][NMeAad]); lactam 10-16)	
